For eleven molecules, IC50 and MIC results are on record in ChEMBL document CHEMBL1147190, “Acid-catalyzed synthesis of oxathiolone fused chalcones. Comparison of their activity toward various microorganisms and human cancer cells line” (Eur J Med Chem, 2007).

≈ marks a conversion by molar mass, not a printed value.

What is called IC50 is the point on the concentration scale where inhibition reaches its midpoint. A lower IC50 goes with greater potency in that assay. One may read the MIC as the least concentration at which growth counts as inhibited.

Assay [1] concerns Staphylococcus aureus. Briefly: Bacteriostatic activity against Staphylococcus aureus ATCC 9144 after 24 hrs by serial dilution microtiter plate method. The following applies: ATCC 9144, 24 h. In kind it is functional, organism-based.
The test system of assay [2] is Micrococcus luteus. Briefly: Bacteriostatic activity against Micrococcus luteus after 24 hrs by serial dilution microtiter plate method. In kind it is functional, organism-based.
Assay [3] deals with Escherichia coli. Briefly: Bacteriostatic activity against Escherichia coli ATCC 11775 after 24 hrs by serial dilution microtiter plate method. Type of assay: functional, organism-based. The following applies: ATCC 11775, 24 h.
Assay [4] relates to Candida albicans. Briefly: Antifungal activity against Candida albicans ATCC 10261 after 48 hrs by serial dilution microtiter plate method. In kind it is functional, organism-based. The settings on record: ATCC 10261, 48 h.
In assay [5] the test system is Mycobacterium tuberculosis. Briefly: Tuberculostatic activity against Mycobacterium tuberculosis H37Rv. Type of assay: functional.
Assay [6] relates to Salmonella typhimurium. Nature of the assay: Bacteriostatic activity against Salmonella Typhimurium PCM 2180 after 24 hrs by serial dilution microtiter plate method. Type of assay: functional, organism-based, Salmonella enterica subsp. enterica serovar Typhimurium. The settings on record: Salmonella enterica.
Assay [7] has as its system Proteus vulgaris. Briefly: Bacteriostatic activity against Proteus vulgaris ATCC 6380 after 24 hrs by serial dilution microtiter plate method. Type of assay: functional, organism-based. The settings on record: ATCC 6380, 24 h.
In assay [8] the test system is Mycobacterium kansasii. Nature of the assay: Tuberculostatic activity against Mycobacterium kansasii. Type of assay: functional.
In assay [9] the test system is HeLa. Briefly: Cytotoxicity against human HeLa S3 cells after 120 hrs by MTT assay. In kind it is functional, cell-based. A general note: Formazan colour is commonly taken as a measure of viable cells.

`COc1ccc(/C=C/C(=O)c2c(OC)ccc3oc(=O)sc23)cc1`: the IC50 in assay [1], in assay [2], in [3], in assay [4], in [6] and in assay [7] was greater than 1000 µg/mL each time. The MIC in assay [5] and in assay [8] was greater than 100 µg/mL throughout.

`COc1ccc2oc(=O)sc2c1C(=O)/C=C/c1ccc(Cl)cc1`: the IC50 in assay [1] was 7.8 µg/mL (≈ 22.5 µM); in assay [2] it was 15.6 µg/mL (≈ 45 µM); in [9], 5.2 µM; in assay [3], greater than 1000 µg/mL; in assay [4] it was 62.5 µg/mL (≈ 180 µM); in assay [6], greater than 1000 µg/mL. The IC50 in assay [7] was greater than 1000 µg/mL. Further, the MIC was 100 µg/mL (≈ 288 µM) in [5] and greater than 100 µg/mL in [8].

With `COc1ccc(/C=C/C(=O)c2c(OC)ccc3oc(=O)sc23)cc1OC`, the IC50 in assay [1] was greater than 1000 µg/mL; in assay [2] it was greater than 1000 µg/mL; in assay [9], 14.1 µM; in [3] it was greater than 1000 µg/mL; in assay [4], greater than 1000 µg/mL; in [6], greater than 1000 µg/mL. The IC50 in [7] is greater than 1000 µg/mL. The MIC in assay [5] and in assay [8] was greater than 100 µg/mL in each case.

For `COc1ccc2oc(=O)sc2c1C(=O)/C=C/c1ccc(OCCN2CCOCC2)cc1`, the IC50 came to 31.2 µg/mL (≈ 70.7 µM) in [1]; 31.2 µg/mL (≈ 70.7 µM) in [2]; 125 µg/mL (≈ 283 µM) in assay [3]; 250 µg/mL (≈ 566 µM) in [4]; 250 µg/mL (≈ 566 µM) in [6]; 125 µg/mL (≈ 283 µM) in assay [7]. Besides, the MIC was 50 µg/mL (≈ 113 µM) in [5] and greater than 100 µg/mL in assay [8].

Regarding `COc1ccc2oc(=O)sc2c1C(=O)/C=C/c1ccc(Br)cc1`, the IC50 in assay [1], in assay [2], in assay [3], in assay [4], in assay [6] and in assay [7] was greater than 1000 µg/mL throughout. Further, the MIC in assay [5] and in assay [8] was greater than 100 µg/mL in each case.

Regarding `COc1ccc2oc(=O)sc2c1C(=O)/C=C/c1cccc(Cl)c1`, the concentration for half-maximal inhibition (IC50) in assay [1], in assay [2], in assay [3], in [4], in assay [6] and in assay [7] was greater than 1000 µg/mL throughout. Further, the MIC in assay [5] is 25 µg/mL (≈ 72.1 µM); in [8], 100 µg/mL (≈ 288 µM).

`COc1ccc2oc(=O)sc2c1C(=O)/C=C/c1ccc([N+](=O)[O-])cc1`: the IC50 in assay [1], in [2], in assay [3], in [4], in assay [6] and in [7] was greater than 1000 µg/mL in each case. Besides, the MIC in assay [5] and in assay [8] was greater than 100 µg/mL in each case.

As to `COc1ccc2oc(=O)sc2c1C(=O)/C=C/c1ccc(N(C)C)cc1`, the half-maximal inhibitory concentration (IC50) was greater than 1000 µg/mL in assay [1]; greater than 1000 µg/mL in [2]; greater than 100 µM in assay [9]; greater than 1000 µg/mL in [3]; greater than 1000 µg/mL in assay [4]; greater than 1000 µg/mL in assay [6]. The molecule also had an IC50 in assay [7] greater than 1000 µg/mL. Further, the minimum inhibitory concentration (MIC) in assay [5] and in assay [8] was greater than 100 µg/mL throughout.

For the molecule `COc1ccc2oc(=O)sc2c1C(=O)/C=C/c1ccccc1Cl`, the IC50 in assay [1], in [2], in [3], in assay [4], in assay [6] and in assay [7] was greater than 1000 µg/mL throughout. Moreover, the values for the MIC in [5] and in assay [8] were 50 µg/mL (≈ 144 µM) and greater than 100 µg/mL, respectively.

For `COc1ccc2oc(=O)sc2c1C(=O)/C=C/c1ccc(OCCN(C)C)cc1`, the half-maximal inhibitory concentration (IC50) in [1] is 15.6 µg/mL (≈ 39.1 µM); in [2], 15.6 µg/mL (≈ 39.1 µM); in assay [9], 8.3 µM; in assay [3], 125 µg/mL (≈ 313 µM); in [4], 125 µg/mL (≈ 313 µM); in [6], 250 µg/mL (≈ 626 µM). The same molecule came in with an IC50 in assay [7] of 125 µg/mL (≈ 313 µM). Moreover, the MIC in assay [5] and in [8] was 100 µg/mL (≈ 250 µM) throughout.

Take `COc1ccc2oc(=O)sc2c1C(=O)/C=C/c1ccccc1`: the IC50 was greater than 1000 µg/mL in assay [1]; greater than 1000 µg/mL in [2]; 8.4 µM in assay [9]; greater than 1000 µg/mL in [3]; greater than 1000 µg/mL in [4]; greater than 1000 µg/mL in [6]. This molecule also came in with an IC50 in assay [7] greater than 1000 µg/mL. The MIC in assay [5] and in assay [8] was greater than 100 µg/mL each time.
